Assay results published in paper PMC8766756, “Insights on Cancer Cell Inhibition, Subcellular Activities, and Kinase Profile of Phenylacetamides Pending 1H-Imidazol-5-One Variants” (Frontiers in Pharmacology, 2022).

Key:
HCT116 cells = assay: Cytotoxic assay in presence of antioxidant N-acetylcysteine; assay type: cell-based; conditions: 48 h, MTT
Source text: Oxidative stress expressed as the reactive oxygen species (ROS) level is an important marker in cell death under the effect of certain cytotoxic drugs. Elevation of ROS may occur as a direct mechanism of some drugs such as Adriamycin ([Kim et al., 2019]) and trans-cinnamaldehyde ([Afanas’ev, 2011]; [Ka et al., 2003]) (safe covalent natural compound) or indirectly by the modulation of certain cellular contents ([Teppo et al., 2017]; [Perillo et al., 2020]). The involvement of ROS elevation and oxidative stress in the cytotoxic activities of KIM-161 on HCT116 was assessed. In this assay, the antioxidant N-acetylcysteine (NAC) was added at a very high concentration (5 mM) to check if it reverses the cytotoxic activities of KIM-161 on HCT116.
FIGURE 10 Effect of antioxidant pretreatment on viability of HCT116 treated with KIM-161. […] Cell viability was expressed as a percentage of vehicle control and was measured by the MTT assay (average of two independent experiments). Statistical significance was determined by two-way ANOVA using Šídák’s multiple comparisons test. * = p < 0.05; *** = p ≤ 0.001; **** = p < 0.0001.
HCT116 cells were seeded at a density of 5 × 10^4 cells/well in 96-well plates and left overnight to adhere. […] Cell viability was expressed as a percentage of the vehicle control (1% v/v ethanol) and was assessed using the MTT assay (data are expressed as mean ± SEM). […]

HL60 cells = assay: Apoptosis detection by caspase-3 activity; assay type: cell-based, human; conditions: HL60, 1 μM, 48 h
Source text: The activated caspase-3 is a marker for cell apoptosis that proteolytically cleaves and activates other caspases and intracellular targets ([Patel et al., 1996]). Caspase-3, which is activated during the early stages of apoptosis, could be measured in HL60 cells undergoing apoptosis by using fluorescein isothiocyanate (FITC)–conjugated active caspase-3 antibody.
FITC conjugated active caspase-3 antibody (BD biosciences, USA) was used to detect the active form of caspase-3 in the cells undergoing apoptosis. Cells were plated in a 6-well culture plate at a density of 0.5 × 10^6 cells and harvested after 24 and 48 h of incubation with the test compound. The collected cells were washed twice with cold 1X PBS and then resuspended in 0.5 ml of BD Cytofix/Cytoperm solution followed by a 20-min incubation on ice. After incubation, the cells were washed twice in a BD Perm/Wash buffer (1X) and were labelled with 5 µL of FITC rabbit anti-caspase-3 antibodies. The labelled cells were washed again with wash buffer and resuspended in 0.5 ml of buffer and analyzed by acquiring a minimum of 5,000 events on the FACSAria III cell analyzer and sorter.

[1] = Stability in human liver microsomes; assay type: in vitro ADME; conditions: 37°C, t1/2
Procedure: The clearance of KIM-161 in MLM or HLM was determined at 37°C as previously described ([Yang et al., 2007]). Both MLM and HLM were obtained from Merck KGaA (Darmstadt, Germany), Cat. No. M9441 (MLM) and M0317 (HLM). The assays were conducted in triplicate in 96-well deep polypropylene plates. KIM-161 was incubated with pooled liver microsomes from male CD-1 mice (Life Technologies, Grand Island, NY), tetrasodium NADPH and magnesium chloride for 60 min at 37°C with gentle shaking. At five time points, the reaction mixture aliquots were transferred to 96-shallow well stop plates on ice containing acetonitrile with 0.1 µM propafenone. […] The standard curves for the test compound were generated using five concentrations in triplicate that were processed as above but with zero incubation time. The stop plates were centrifuged at 2000g for 10 min, and then, the supernatant aliquots were transferred to a Waters Aquity® UPLC 700 µL 96-well sample plate with cap mat (Waters, Milford, MA). The amount of the compound remaining in the supernatant was quantified by LC/MS/MS using a Waters Xevo TQ MS (electrospray positive mode) coupled to a Waters Aquity® UPLC (BEH column, C18). Propafenone was used as the internal standard. GraphPad® Prism v.5.04 was used for nonlinear fitting of time course data to generate t1/2 values.

SMILES: COc1ccc(/C=C2\N=C(C)N(c3ccc(CC(=O)NCc4ccccc4)cc3)C2=O)cc1 [Compound 4c, (Z)-N-Benzyl-2-(4-(4-(4-methoxybenzylidene)-2-methyl-5-oxo-4,5-dihydro-1H-imidazol-1-yl)phenyl)acetamide]
- change of cytotoxic effect by NAC addition (HCT116 cells; HCT116, KIM-161 0.5 µM, NAC 5 mM pretreatment 1 h): slightly altered
- change of cytotoxic effect by NAC addition (HCT116 cells; HCT116, increasing KIM-161 concentration (1.0, 5.0 µM), NAC 5 mM): higher involvement of this factor in the anticancer effect
- Casp3 active %P (HL60 cells): 49.94%
- increase in the cells undergoing apoptosis (active caspase-3) vs untreated (HL60 cells): ~10 fold
- HLM stability [1]: 22.9 min
